In ChEMBL document CHEMBL3751771, “LpxC Inhibitors as Effective Therapy Against Multidrug Resistant Bacterial Infections” (2015):
Converted amounts (≈) assume the structure as drawn.

Assays:
Format in all cases: functional
[1] = tested on: Escherichia coli; assay: Antibacterial activity against Escherichia coli ATCC 25922
[2] = tested on: Pseudomonas aeruginosa; assay: Antibacterial activity against Pseudomonas aeruginosa ATCC 27853
[3] = tested on: Klebsiella pneumoniae; assay: Antibacterial activity against Klebsiella pneumoniae A-651

Structure (SMILES)	MIC [1]	MIC [2]	MIC [3]
C[C@@](CCN1Cc2cc(C#CC#C[C@@H]3C[C@@]3(F)CO)cn2C1=O)(C(=O)NO)S(C)(=O)=O	0.25 µg/mL (≈ 0.554 µM)	0.5 µg/mL (≈ 1.11 µM)	0.25 µg/mL (≈ 0.554 µM)
C[C@@](CCN1Cc2cc(C#Cc3ccc(C4(CN)CC4)cc3)cn2C1=O)(C(=O)NO)S(C)(=O)=O.O=CO	8 µg/mL	4 µg/mL	8 µg/mL
CCOc1ccc(-c2cc3n(c2)C(=O)N(CC[C@](C)(C(=O)NO)S(C)(=O)=O)C3)c(Cl)c1	≤ 0.063 µg/mL	4 µg/mL (≈ 8.51 µM)	0.125 µg/mL (≈ 0.266 µM)
C[C@@](CCN1Cc2cc(C#Cc3ccc(OCCO)cc3)cn2C1=O)(C(=O)NO)S(C)(=O)=O	0.125 µg/mL (≈ 0.263 µM)	1 µg/mL (≈ 2.1 µM)	0.5 µg/mL (≈ 1.05 µM)
C[C@@](CCN1Cc2cc(C#Cc3ccc(COC(N)=O)cc3)cn2C1=O)(C(=O)NO)S(C)(=O)=O	≤ 0.063 µg/mL	0.5 µg/mL (≈ 1.02 µM)	0.25 µg/mL (≈ 0.512 µM)
COc1ccc(-c2cc3n(c2)C(=O)N(CC[C@](C)(C(=O)NO)S(C)(=O)=O)C3)c(F)c1	0.125 µg/mL (≈ 0.284 µM)	1 µg/mL (≈ 2.28 µM)	≤ 0.063 µg/mL
